# In patent US5476848A, “14B(R) isomers of novel tetracyclic compounds having anti-allergic and anti-asthmatic activities, and their use” (Sankyo Company, Limited, priority 1989, dated 1995):
# Counter-ions that a name gives are not always drawn.
# Legend:
# pentobarbital anesthesia = assay: Prolongation of pentobarbital anesthesia (Test Example 3); format: in vivo, guinea pig (male Hartley); conditions: for AD (oral dose which prolonged the pentobarbital-induced anesthesia by 15%, AD15): 1 hr before pentobarbital 30 mg/kg s.c.
# Text: Sedation is the side effect with the highest incidence in histamine (H1)-blockers and anti-allergic drugs with an H1 blocking effect (Douglas, W. W. (1980) The Pharmacological Basis of Therapeutis, A. Goodman Gilman, L. S. Goodman, A. Gilman (eds), Macmillian, New York) and therefore anti-allergic drugs which overcome this disadvantage are needed. We investigated the effects of test compounds on pentobarbital anesthesia as a method for measuring incidence of sedation in animals.
# Prolongation effects on anesthesia are usually investigated with ethanol or thiopental (in mice and rats). However, we investigated it with pentobarbital in guinea pigs because our data with pentobarbital corresponded well with the clinical data, that is, the incidence of sedation of other anti-allergic drugs in clinical use.
# Sodium Pentobarbital (30 mg/kg) was subcutaneously injected into the backs of male Hartley guinea pigs weighing approximately 400 g, and the duration of postural reflex abolition was then measured.
# Test compounds were administered orally 1 hr before the pentobarbital injection. The prolongation rate obtained with the test compound was calculated by comparison to the control (the duration of pentobarbital anesthesia in animals untreated with the test compounds). In addition, the AD15 value (the oral dose which prolonged the pentobarbital-induced anesthesia by 15%) was determined, and the results are shown in the table.
# [1] = test system: Passive Cutaneous Anaphylaxis (PCA); assay: Inhibitory effect on passive cutaneous anaphylaxis (PCA) in rats (Test Example 1"); format: in vivo, rat (male SD); conditions: Rattus norvegicus, po, read-out: Inhibitory rate; for inhibition at 0.05 mg/kg: 0.05 mg/kg (Table 3"); for inhibition at 0.2 mg/kg: 0.2 mg/kg (Table 3"); for inhibition at 3.1 mg/kg: 3.1 mg/kg (Table 3")
# Experimental: Male SD rats (5 weeks old) were used as the test animals in groups, each containing 4 animals. The rats were sensitized by intradermal injection of 0.05 ml of the diluted antiserum solution in the dorsal position. […] 60 minutes later they were injected in the caudal vein with 5 ml/kg body weight of physiological saline containing 0.4% w/v of egg albumin and 1.0% w/v of Evans Blue.
# (§1) The inhibitory rate was calculated by the following equation.
# (§2) Inhibitory rate (%)=(1-B/A)×100
# (§3) A: amount of exuded dye in the control group
# (§4) B: amount of exuded dye in the test group.
# [2] = test system: Antigen-induced Bronchoconstriction; assay: Effect on antigen-induced bronchoconstriction in sensitized guinea pigs (Test Example 2"); format: in vivo, guinea pig (male Hartley); conditions: Cavia porcellus, po, read-out: Inhibitory rate; for inhibition at 0.025 mg/kg: 0.025 mg/kg (Table 4"); for inhibition at 0.1 mg/kg: 0.1 mg/kg (Table 4")
# Experimental: (§5) The test animals used were male guinea pigs of the Hartley strain (weighing about 400 to 500 g). These animals were sensitized according to Morris' method [H. R. Morris; Br. J. Pharmac., 67, 179-184 (1979)]. The guinea pigs were injected twice subcutaneously and intraperitoneally, each time with 25 mg of egg albumin (grade 5, Sigma) at weekly intervals. 7 days after the second of these weekly injections, the animals were fasted for one day and then exposed to an aerosol of egg albumin (10 mg/ml). All of the animals so exposed responded with convulsions, indicating respiratory distress due to airway constriction, within 6 minutes.
# 60 minutes before the egg albumin challenge, one of the test compounds shown in the following Table 4" was administered orally to each of the animals.
# eosinophil chemotaxis = assay: Inhibitory effect of eosinophil chemotaxis to zymosan-activated serum (Test Example 4); format: cell-based, guinea pig; conditions: Cavia porcellus, Eosinophil, 0.1 μg/ml; ZAS
# Text: Eosinophils were harvested from the peritoneal cavity of polymyxin B-treated guinea pigs (body weight, approx. 400 g) according to the method described by Pincus (Pincus, S. H. et al.: Blood, 52, 127-134 (1978)). The eosinophils were separated and purified by Ficoll-paque (Pharmacia) density gradient centrifugation. Then, the eosinophil chemotaxis to zymosan-activated serum (ZAS) was investigated by a modification of the Boyden micropore filter technique (Gosset, P. et al.: Clin. Exp. Immunol., 65, 654-663 (1986)). Briefly, the assay was carried out in a 48-well microchemotaxis assembly (Neuroprobe; Cabin John, Md., U.S.A.). Cell suspensions were adjusted to 2.5×10^5 /50 μl, and placed in the upper chamber separated from the chemoattractant (ZAS) solution in the lower chamber by a 3 μm pore size polycarbonate membrane filter (Nucleopore Co., Pleasanton, U.S.A.). The cells were incubated for 10 min at 37° C. with the test compounds, prior to their addition to the chemotaxis chamber. Migration was carried out at 37° C. in humidified air with 5% CO2 for 2 h. After the incubation, the migrated eosinophils in the lower Chamber were counted by a hemocytometer.
# The percentage inhibition obtained with the test compound was calculated by comparison to the positive control (migration of non-treated cells in response to the ZAS), according to the formula:
# Percent inhibition=[1-(A/B)]×100
# A: (migration with a test compound)-(spontaneous migration)
# B: (positive control migration)-(spontaneous migration)
# eosinophil accumulation = assay: Inhibitory effect on antigen induced eosinophil accumulation (Test Example 4); format: in vivo, guinea pig (male Hartley); conditions: Cavia porcellus, Eosinophil, po, 1 hr before antigen challenge, BALF 24 hr after;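 note: oral dose 0.1 mg/kg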
# Experimental: Male Hartley guinea pigs weighing approximately 400 g were sensitized with ovalbumin by the method described by Engineer et al. (Engineer, D. M. et al., J. Pharmacol., 62, 61-66 (1978)), and the number of eosinophils infiltrating into the bronchoalveolar space due to antigen challenge was examined.
# Briefly, the animals were exposed to the antigen (ovalbumin) for 6 min. At 24 hr. after antigen challenge, the guinea pigs were anesthetized with pentobarbital (30 mg/kg, i.p.). The trachea was cannulated by a disposable intravenous catheter, and the airway lumen (especially in the right posterior lobe) was washed with 0.9% saline (10 ml/kg) kept at 37° C. The bronchoalveolar lavage fluid (BALF) from each animal was centrifuged (150 g for 10 min at 4° C.). After removing the supernatant, the cell pellet was resuspended in HBSS (Hank's balanced solution) and a total cell count was performed using a standard hemocytometer. Differential cell counts were done on smears fixed in methanol and stained with Wright-Giemsa solution, and by light microscopy under oil immersion (×1000). The proportion of eosinophil population was expressed as a percentage of total cells, and this ratio together with the total cell count was used to calculate the total number of eosinophils. The percent inhibition of the test compounds which was administered 1 hr before antigen challenge, was calculated as follows:
# Percent inhibition=[1-(C-A)/(B-A)]×100
# A: negative control: mean value of cell counts in BALF from the animals with inhaled saline
# B: positive control: mean value of cell counts in BALF from the animals 24 h after antigen challenge
# C: cell counts of BALF for the animals pretreated with a test compound 24 h after antigen challenge
# [3] = test system: Antigen-induced Bronchoconstriction; assay: Effect on antigen-induced bronchoconstriction in sensitized guinea pigs (Test Example 2); format: in vivo, guinea pig (male Hartley); conditions: Cavia porcellus, po, 60 min before challenge, read-out: Inhibitory rate
# Experimental: as §5, with “were” for “were injected twice”, “intraperitoneally injected twice,” for “intraperitoneally,”
# 60 minutes before the egg albumin challenge, one of the test compounds shown in the following Table 5 was administered orally to each of the animals.
# [4] = test system: Passive Cutaneous Anaphylaxis (PCA); assay: Inhibitory effect on passive cutaneous anaphylaxis (PCA) in rats (Test Example 1); format: in vivo, rat (male SD); conditions: Rattus norvegicus, po, read-out: Inhibitory rate
# Experimental: Male SD rats (5 weeks old) were used as the test animals in groups, each containing 4 animals. The rats were sensitized by intradermal injection of 0.05 ml of the diluted antiserum solution in the dorsal position. 48 hours after this injection, a suspension of the test compound in an aqueous 0.5% w/v tragacanth solution was orally administered to the rats, fasted for one day, and 60 minutes later they were injected in the caudal vein with 5 ml/kg body weight of physiological saline containing 0.4% w/v egg albumin and 1.0% w/v Evans Blue.
# as §1, §2, §3, §4
smiles,measurement,setting,value
"O=C(O)CCCN1CCN2c3ccccc3Cc3ccccc3C2C1 (racemic) [Example 22, 4-(1,2,3,4,10,14b-Hexahydrodibenzo[c,f]pyrazino[1,2-a]azepin-2-yl)butanoic acid]","AD (oral dose which prolonged the pentobarbital-induced anesthesia by 15%, AD15)","pentobarbital anesthesia; po, guinea pigs",59 mg/kg
"O=C(O)CCCN1CCN2c3ccccc3Cn3cccc3[C@H]2C1 [3""]",inhibition at 0.05 mg/kg,[1],66%
same,inhibition at 0.2 mg/kg,[1],72%
same,inhibition at 0.025 mg/kg,[2],60%
same,inhibition at 0.1 mg/kg,[2],100%
O=C(O)CCCN1CCN2c3ccccc3Cc3ccccc3[C@@H]2C1 [22 HCl R-isomer],inhibition at 0.1 µg/mL,eosinophil chemotaxis,53%
same,inhibition at 0.05 mg/kg,[1],55%
same,inhibition at 0.2 mg/kg,[1],67%
same,inhibition at 0.025 mg/kg,[2],40%
same,inhibition at 0.1 mg/kg,[2],80%
same,inhibition at 0.4 mg/kg,"[2]; 0.4 mg/kg (Table 4"")",100%
same,inhibition at 0.1 mg/kg,eosinophil accumulation,59%
O=C(O)CCCN1CCN2c3ccccc3Cc3ccccc3[C@@H]2C1 [22 R-isomer],prolongation of anesthesia side effect,pentobarbital anesthesia; in words,extremely low
same,"AD (oral dose which prolonged the pentobarbital-induced anesthesia by 15%, AD15)","pentobarbital anesthesia; po, guinea pigs",123 mg/kg
same,amount of R-isomer required as compared with the racemate for the same prolongation time,"pentobarbital anesthesia; ratio to racemate, po, guinea pigs",about double
O=C(O)CCCN1CCN2c3ccccc3Cc3ccccc3[C@H]2C1 [22 S-isomer],"AD (oral dose which prolonged the pentobarbital-induced anesthesia by 15%, AD15)","pentobarbital anesthesia; po, guinea pigs",75 mg/kg
"NC(=O)COCCN1CCN2c3ccccc3Cc3ccccc3C2C1 (centres unmarked) [Example 26, 2-(1,2,3,4,10,14b-Hexahydrodibenzo[c,f]pyrazino[1,2-a]azepin-2-yl)ethoxyacetamide]",inhibition at 0.4 mg/kg,[3]; 0.4 mg/kg,80%
same,inhibition at 0.05 mg/kg,[4],44%
same,inhibition at 0.2 mg/kg,[4],63%
"O=C(O)COCCN1CCN2c3ccccc3Cc3ccccc3[C@H]2C1 [Example 59, (S)-2-(1,2,3,4,10,14b-Hexahydrodibenzo[c,f]pyrazino[1,2-a]azepin-2-yl)ethoxyacetic Acid]",inhibition at 0.05 mg/kg,[3]; 0.05 mg/kg,60%
same,inhibition at 0.05 mg/kg,[4],59%
same,inhibition at 0.2 mg/kg,[4],74%
"O=C(O)COCCN1CCN2c3ccccc3Cc3ccccc3[C@@H]2C1 [Example 65, (R)-2-(1,2,3,4,10,14b-hexahydrodibenzo[c,f]pyrazino[1,2-a]azepin-2-yl)ethoxyacetic acid monohydrate]",inhibition at 0.1 mg/kg,[3]; 0.1 mg/kg,60%
same,inhibition at 0.05 mg/kg,[4],45%
same,inhibition at 0.4 mg/kg,[4]; 0.4 mg/kg,58%
"OCCN1CCN2c3ccccc3Cn3cccc3C2C1 (centres unmarked) [Prior art compound D, 2-(2-hydroxyethyl)-1,3,4,14b-tetrahydro-2H, 10H-pyrazino[1,2-a]pyrrolo[2,1-c][1,4]benzodiazepine, reference compound]",inhibition at 3.1 mg/kg,[1],30%
same,inhibition at 3.1 mg/kg,[4],30%
"NC(=O)CCN1CCN2c3ccccc3Cc3ccccc3C2C1 (centres unmarked) [Prior art compound F, 2-(2-carboxamidoethyl)-1,2,3,4,10,14b-hexahydrodibenzo[c,f]pyrazino[1,2-a]azepine, reference compound]",inhibition at 3.1 mg/kg,[1],52%
same,inhibition at 3.1 mg/kg,[4],52%
